Measured values: ChEMBL document CHEMBL5352412, “Discovery of 1,2-diphenylethene derivatives as human DNA topoisomerase II catalytic inhibitors and antitumor agents” (Eur J Med Chem, 2022)
“And” between values parts separate entries of the source, which are not always exact repeats. Identical values can stand only once. The source made the active and inactive calls. No cut-off for these calls is given here.

Columns and labels:
[1] = tested on: MDA-MB-231; experiment: Antiproliferative activity against human MDA-MB-231 cells incubated for 72 hrs by CCK8 assay; format: functional, cell-based
[2] = tested on: HepG2; experiment: Antiproliferative activity against human HepG2 cells incubated for 72 hrs by CCK8 assay; format: functional, cell-based
[3] = biological target: T1, DNA topoisomerase 2-alpha (Homo sapiens, UniProt P11388); experiment: Inhibition of human topoisomerase 2-alpha assessed as reduction in relaxation of pBR322 DNA at 100 uM measured after 30 mins by agarose gel electrophoresis method relative to control
T1 sequence (P11388 whole entry): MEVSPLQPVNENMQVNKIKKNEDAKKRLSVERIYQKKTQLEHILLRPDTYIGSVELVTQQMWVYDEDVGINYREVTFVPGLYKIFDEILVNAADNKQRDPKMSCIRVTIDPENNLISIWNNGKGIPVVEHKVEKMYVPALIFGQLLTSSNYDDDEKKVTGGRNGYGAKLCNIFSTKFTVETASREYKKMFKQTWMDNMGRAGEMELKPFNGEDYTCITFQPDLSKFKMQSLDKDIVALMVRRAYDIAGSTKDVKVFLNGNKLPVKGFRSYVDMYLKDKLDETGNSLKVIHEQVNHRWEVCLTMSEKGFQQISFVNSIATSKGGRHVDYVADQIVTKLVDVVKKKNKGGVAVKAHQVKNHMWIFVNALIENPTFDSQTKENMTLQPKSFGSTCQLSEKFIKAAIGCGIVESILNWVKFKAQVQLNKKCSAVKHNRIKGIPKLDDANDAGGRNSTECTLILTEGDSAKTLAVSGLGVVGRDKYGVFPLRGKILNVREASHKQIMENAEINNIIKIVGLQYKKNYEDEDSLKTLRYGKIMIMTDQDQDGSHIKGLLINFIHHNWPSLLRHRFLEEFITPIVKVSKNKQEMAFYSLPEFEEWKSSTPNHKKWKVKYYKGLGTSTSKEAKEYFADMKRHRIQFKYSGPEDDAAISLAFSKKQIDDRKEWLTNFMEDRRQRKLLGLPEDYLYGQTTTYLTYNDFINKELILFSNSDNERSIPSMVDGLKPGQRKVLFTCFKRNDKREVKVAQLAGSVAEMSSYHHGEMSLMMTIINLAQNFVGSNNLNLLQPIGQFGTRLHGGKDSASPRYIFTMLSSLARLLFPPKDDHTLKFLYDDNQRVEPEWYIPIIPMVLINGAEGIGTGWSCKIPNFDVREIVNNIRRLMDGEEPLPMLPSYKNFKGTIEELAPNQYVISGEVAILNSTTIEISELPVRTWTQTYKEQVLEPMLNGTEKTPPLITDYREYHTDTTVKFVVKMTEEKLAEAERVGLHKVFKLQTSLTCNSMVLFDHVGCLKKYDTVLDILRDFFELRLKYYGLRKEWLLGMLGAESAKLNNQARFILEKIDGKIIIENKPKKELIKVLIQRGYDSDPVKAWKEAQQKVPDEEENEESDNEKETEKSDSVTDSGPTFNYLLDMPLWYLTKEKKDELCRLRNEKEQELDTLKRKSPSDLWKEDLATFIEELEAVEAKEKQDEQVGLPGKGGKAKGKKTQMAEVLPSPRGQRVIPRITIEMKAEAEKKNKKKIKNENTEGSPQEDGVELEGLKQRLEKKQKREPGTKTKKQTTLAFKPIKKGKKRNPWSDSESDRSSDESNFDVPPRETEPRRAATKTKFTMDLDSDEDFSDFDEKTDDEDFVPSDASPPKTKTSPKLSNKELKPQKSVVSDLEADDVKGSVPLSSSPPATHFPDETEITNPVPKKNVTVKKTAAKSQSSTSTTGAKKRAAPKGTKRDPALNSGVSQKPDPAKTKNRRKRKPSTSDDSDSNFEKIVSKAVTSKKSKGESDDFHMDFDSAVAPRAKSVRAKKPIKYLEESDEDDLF

[4] = tested on: HeLa; experiment: Antiproliferative activity against human HeLa cells incubated for 72 hrs by CCK8 assay; format: functional, cell-based
[5] = tested on: HCT-116; experiment: Antiproliferative activity against human HCT-116 cells incubated for 72 hrs by CCK8 assay; format: functional, cell-based; settings: HCT-116, 72 h
[6] = tested on: PC-3; experiment: Antiproliferative activity against human PC-3 cells incubated for 72 hrs by CCK8 assay; format: functional, cell-based; settings: PC-3, 72 h
[7] = Antiproliferative activity against human CCL-226 cells incubated for 72 hrs by CCK8 assay; format: toxicity, cell-based
[8] = Antiproliferative activity against human BEAS-2B cells incubated for 72 hrs by CCK8 assay; format: toxicity, cell-based
[9] = Antiproliferative activity against human HL7702 cells incubated for 72 hrs by CCK8 assay; format: toxicity, cell-based; settings: HL7702 (L02) cells
[10] = biological target: T1, DNA topoisomerase 2-alpha; experiment: Inhibition of human topoisomerase 2-alpha assessed as DNA intercalation at 100 to 200 uM using pBR322 DNA as substrate measured after 30 mins by agarose gel electrophoresis analysis; settings: dose 100-200 µM
[11] = tested on: A549; experiment: Antiproliferative activity against human A549 cells incubated for 72 hrs by CCK8 assay; format: functional, cell-based; settings: A549, 72 h
[12] = biological target: T1, DNA topoisomerase 2-alpha; experiment: Poison activity at human topoisomerase 2-alpha assessed as linear DNA formation at 100 to 200 microM; settings: dose 100-200 µM
[13] = tested on: HepG2; experiment: Upregulation of gamma-H2AX level in human HepG2 cells incubated for 4 hrs by Western blotting analysis; format: functional, cell-based
[14] = tested on: HepG2; experiment: Induction of cell cycle arrest in human HepG2 cells assessed as accumulation of cells at G1 phase at 1 uM incubated for 24 hrs by PI staining based flow cytometry analysis (reference value: 54%); format: functional
[15] = tested on: HepG2; experiment: Induction of cell cycle arrest in human HepG2 cells assessed as accumulation of cells at S phase at 1 uM incubated for 24 hrs by PI staining based flow cytometry analysis (reference value: 28.2%); format: functional
[16] = tested on: HepG2; experiment: Induction of cell cycle arrest in human HepG2 cells assessed as accumulation of cells at G2/M phase at 1 uM incubated for 24 hrs by PI staining based flow cytometry analysis (reference value: 17.5%); format: functional
[17] = Toxicity in C57BL/6J mouse assessed as change in body weight at 500 mg/kg administered via gavage twice at day 1 and measured for 7 days; format: organism-based; settings: in vivo, po, 168 h, time 7 day
[18] = Toxicity in C57BL/6J mouse assessed as animal death at 500 mg/kg administered via gavage twice at day 1 and measured for 7 days; format: organism-based; settings: in vivo, po, time 7 day, read-out: Activity
[19] = tested on: HepG2; experiment: Induction of apoptosis in human HepG2 cells assessed as viable cells at 5 uM incubated for 24 hrs by annexin-V FITC and PI staining based flow cytometry analysis (reference value: 93.8%); format: functional; settings: read-out: Activity
[20] = tested on: HepG2; experiment: Induction of apoptosis in human HepG2 cells assessed as early apoptotic cells at 5 uM incubated for 24 hrs by annexin-V FITC and PI staining based flow cytometry analysis (reference value: 3.7%); format: functional
[21] = tested on: HepG2; experiment: Induction of apoptosis in human HepG2 cells assessed as late apoptotic cells at 5 uM incubated for 24 hrs by annexin-V FITC and PI staining based flow cytometry analysis (reference value: 2.3%); format: functional
[22] = tested on: HepG2; experiment: Induction of apoptosis in human HepG2 cells assessed as necrotic cells at 5 uM incubated for 24 hrs by annexin-V FITC and PI staining based flow cytometry analysis (reference value: 0.2%); format: functional
[23] = biological target: T1, DNA topoisomerase 2-alpha; experiment: Inhibition of human topoisomerase 2-alpha assessed as reduction in relaxation of pBR322 DNA at 25 uM measured after 30 mins by agarose gel electrophoresis method relative to control
[24] = organism: Homo sapiens; experiment: Selectivity index, ratio of IC50 for human CCL-226 cells to IC50 for human HeLa cells
[25] = organism: Homo sapiens; experiment: Selectivity index, ratio of IC50 for human CCL-226 cells to IC50 for human HCT-116 cells
[26] = organism: Homo sapiens; experiment: Selectivity index, ratio of IC50 for human CCL-226 cells to IC50 for human PC-3 cells
[27] = organism: Homo sapiens; experiment: Selectivity index, ratio of IC50 for human CCL-226 cells to IC50 for human MDA-MB-231 cells
[28] = organism: Homo sapiens; experiment: Selectivity index, ratio of IC50 for human CCL-226 cells to IC50 for human HepG2 cells
[29] = organism: Homo sapiens; experiment: Selectivity index, ratio of IC50 for human CCL-226 cells to IC50 for human A549 cells
[30] = Selectivity index, ratio of IC50 for human BEAS-2B cells to IC50 for human HeLa cells; format: toxicity; settings: BEAS-2B cells versus HeLa cells, read-out: Ratio IC50
[31] = Selectivity index, ratio of IC50 for human BEAS-2B cells to IC50 for human HCT-116 cells; format: toxicity; settings: BEAS-2B cells versus HCT-116 cells, read-out: Ratio IC50
[32] = Selectivity index, ratio of IC50 for human BEAS-2B cells to IC50 for human PC-3 cells; format: toxicity; settings: BEAS-2B cells versus PC-3 cells, read-out: Ratio IC50
[33] = Selectivity index, ratio of IC50 for human BEAS-2B cells to IC50 for human MDA-MB-231 cells; format: toxicity; settings: BEAS-2B cells versus MDA-MB-231 cells, read-out: Ratio IC50
[34] = Selectivity index, ratio of IC50 for human BEAS-2B cells to IC50 for human HepG2 cells; format: toxicity; settings: BEAS-2B cells versus HepG2 cells, read-out: Ratio IC50
[35] = Selectivity index, ratio of IC50 for human BEAS-2B cells to IC50 for human A549 cells; format: toxicity; settings: BEAS-2B cells versus A549 cells, read-out: Ratio IC50
[36] = Selectivity index, ratio of IC50 for human HL-7702 cells to IC50 for human HeLa cells; format: toxicity; settings: HL-7702 cells versus HeLa cells, read-out: Ratio IC50
[37] = Selectivity index, ratio of IC50 for human HL-7702 cells to IC50 for human HCT-116 cells; format: toxicity; settings: HL-7702 cells versus HCT-116 cells, read-out: Ratio IC50
[38] = Selectivity index, ratio of IC50 for human HL-7702 cells to IC50 for human PC-3 cells; format: toxicity; settings: HL-7702 cells versus PC-3 cells, read-out: Ratio IC50
[39] = Selectivity index, ratio of IC50 for human HL-7702 cells to IC50 for human MDA-MB-231 cells; format: toxicity; settings: HL-7702 cells versus MDA-MB-231 cells, read-out: Ratio IC50
[40] = Selectivity index, ratio of IC50 for human HL-7702 cells to IC50 for human HepG2 cells; format: toxicity; settings: HL-7702 cells versus HepG2 cells, read-out: Ratio IC50
[41] = Selectivity index, ratio of IC50 for human HL-7702 cells to IC50 for human A549 cells; format: toxicity; settings: HL-7702 cells versus A549 cells, read-out: Ratio IC50
[42] = biological target: T1, DNA topoisomerase 2-alpha; experiment: Inhibition of human topoisomerase 2-alpha assessed as reduction in relaxation of pBR322 DNA measured after 30 mins by agarose gel electrophoresis method
[43] = biological target: DNA topoisomerase 2-beta (Homo sapiens, UniProt Q02880); experiment: Inhibition of human topoisomerase 2-beta assessed as reduction in relaxation of pBR322 DNA measured after 30 mins by agarose gel electrophoresis method
Chain of DNA topoisomerase 2-beta (Q02880 whole entry): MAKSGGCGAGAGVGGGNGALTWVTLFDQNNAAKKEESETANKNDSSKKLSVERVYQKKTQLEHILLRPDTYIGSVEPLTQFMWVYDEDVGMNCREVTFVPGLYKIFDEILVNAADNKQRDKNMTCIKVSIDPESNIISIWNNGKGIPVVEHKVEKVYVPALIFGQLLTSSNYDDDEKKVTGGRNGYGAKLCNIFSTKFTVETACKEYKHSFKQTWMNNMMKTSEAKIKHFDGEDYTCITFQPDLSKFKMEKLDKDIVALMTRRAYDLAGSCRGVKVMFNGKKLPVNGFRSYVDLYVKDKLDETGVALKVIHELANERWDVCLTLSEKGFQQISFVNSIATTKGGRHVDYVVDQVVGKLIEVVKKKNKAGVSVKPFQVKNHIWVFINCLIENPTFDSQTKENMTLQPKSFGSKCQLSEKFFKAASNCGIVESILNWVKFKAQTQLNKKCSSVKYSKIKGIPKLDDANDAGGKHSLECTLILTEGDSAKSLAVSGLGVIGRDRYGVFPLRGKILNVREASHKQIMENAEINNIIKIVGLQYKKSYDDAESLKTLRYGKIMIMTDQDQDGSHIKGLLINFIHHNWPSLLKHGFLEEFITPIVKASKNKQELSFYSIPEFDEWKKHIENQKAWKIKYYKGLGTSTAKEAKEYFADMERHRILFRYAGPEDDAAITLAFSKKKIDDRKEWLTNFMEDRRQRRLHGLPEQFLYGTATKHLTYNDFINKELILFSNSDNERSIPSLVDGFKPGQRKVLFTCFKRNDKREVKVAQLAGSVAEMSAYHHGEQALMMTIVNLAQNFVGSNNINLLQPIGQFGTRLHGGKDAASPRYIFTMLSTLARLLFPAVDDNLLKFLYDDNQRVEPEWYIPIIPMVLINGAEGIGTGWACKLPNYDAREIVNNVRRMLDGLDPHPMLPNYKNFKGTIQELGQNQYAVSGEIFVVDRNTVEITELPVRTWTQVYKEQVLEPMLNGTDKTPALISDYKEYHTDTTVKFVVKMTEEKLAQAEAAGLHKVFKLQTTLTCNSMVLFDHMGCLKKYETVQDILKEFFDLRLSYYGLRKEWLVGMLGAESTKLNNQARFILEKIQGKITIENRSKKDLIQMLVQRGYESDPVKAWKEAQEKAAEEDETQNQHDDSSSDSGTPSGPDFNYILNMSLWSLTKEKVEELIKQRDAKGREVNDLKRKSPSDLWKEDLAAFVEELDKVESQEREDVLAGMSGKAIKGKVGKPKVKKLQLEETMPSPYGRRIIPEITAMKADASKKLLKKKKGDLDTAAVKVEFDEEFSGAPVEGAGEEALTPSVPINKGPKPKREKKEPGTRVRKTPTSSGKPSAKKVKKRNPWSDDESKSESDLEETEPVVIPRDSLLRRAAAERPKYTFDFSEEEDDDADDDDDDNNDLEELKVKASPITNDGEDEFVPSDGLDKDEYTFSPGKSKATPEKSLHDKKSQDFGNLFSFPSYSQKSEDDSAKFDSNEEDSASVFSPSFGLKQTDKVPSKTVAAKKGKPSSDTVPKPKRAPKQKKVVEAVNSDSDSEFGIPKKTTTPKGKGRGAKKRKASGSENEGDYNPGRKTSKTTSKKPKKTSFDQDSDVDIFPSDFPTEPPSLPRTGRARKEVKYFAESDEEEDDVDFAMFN

[44] = biological target: T1, DNA topoisomerase 2-alpha; experiment: Inhibition of human topoisomerase 2-alpha using pBR322 DNA as substrate incubated for 30 mins in presence of 0.5 to 5 mM ATP (reference value: 2.9 microM)
[45] = biological target: T1, DNA topoisomerase 2-alpha; experiment: Inhibition of human topoisomerase 2-alpha using pBR322 DNA as substrate incubated for 1 hr in presence of ATP by malachite green phosphate method

Row | Structure (SMILES) | IC50 ([1]; Homo sapiens, MDA-MB-231, 72 h) [µM] | IC50 ([2]; Homo sapiens, HepG2, 72 h) [nM] | inhibition [3] | IC50 [4] [nM] | IC50 [5] [nM] | IC50 [6] [nM] | IC50 at 72 h [7] [µM] | IC50 at 72 h [8] [µM] | IC50 at 72 h [9] [µM] | inhibition [10] | IC50 [11] [µM] | Activity [13] | inhibition [23] | Ratio IC50 [24] | Ratio IC50 [25] | Ratio IC50 [26] | Ratio IC50 [27] | Ratio IC50 [28] | Ratio IC50 [29] | selectivity ratio [30] | also measured
1 | COc1cc([C@@H]2c3cc4c(cc3[C@@H](O[C@@H]3O[C@@H]5CO[C@@H](C)O[C@H]5[C@H](O)[C@H]3O)[C@H]3COC(=O)[C@H]23)OCO4)cc(OC)c1O [ETOPOSIDE] | 5.6 | 8100 | 43.3% | 1500 | 2400 | 3000 | 20.8 | 21 | 39.1 | inactive | 15.1 | Active |  |  |  |  |  |  |  |  | Activity ([12]; filed as activator): Active; Activity [14]: 1.1%; Activity [15]: 73.7%; Activity [16]: 25.2%; Activity [17]: Toxic; mortality at 168 h [18]: 33.3%; viability at 5 µM [19]: 76.9%; Activity [20]: 10.7%; Activity [21]: 11.8%; Activity [22]: 0.6%
2 | O=C(/C=C/c1ccccc1)Nc1ccc(/C=C/c2cc(O)cc(O)c2)cc1 | 4.1 | 2400 | 82.6% and 76.1% | 1900 | 2100 | 2300 | > 50 | > 50 | 37.8 |  | 4.1 |  | 71.2% and 61.6% | > 9.2 | > 9.2 | > 9.2 | > 9.2 | > 9.2 | > 9.2 | > 9.2 | IC50 ([1]; mda-mb-231): 3.6 µM; IC50 ([2]; hepg2): 2900 nM; selectivity ratio [31]: > 9.2; selectivity ratio [32]: > 9.2; selectivity ratio [33]: > 9.2; selectivity ratio [34]: > 9.2; selectivity ratio [35]: > 9.2; selectivity ratio [36]: > 9.2; selectivity ratio [37]: > 9.2; selectivity ratio [38]: > 9.2; selectivity ratio [39]: > 9.2; selectivity ratio [40]: > 9.2; selectivity ratio [41]: > 9.2; IC50 [42]: 16.6 µM; IC50 [43]: 195 µM
3 | O=C(/C=C/c1ccccc1)Nc1ccc(-c2ccc3cc(O)ccc3c2)cc1 | 0.8 | 700 | 81% | 500 | 600 | 900 | > 50 | 26.9 | > 50 | inactive | 1 | inactive | 86.2% | > 28.1 | > 28.1 | > 28.1 | > 28.1 | > 28.1 | > 28.1 | > 28.1 | IC50 [44]: 8.6 µM; selectivity ratio [31]: > 28.1; selectivity ratio [32]: > 28.1; selectivity ratio [33]: > 28.1; selectivity ratio [34]: > 28.1; selectivity ratio [35]: > 28.1; selectivity ratio [36]: > 28.1; selectivity ratio [37]: > 28.1; selectivity ratio [38]: > 28.1; selectivity ratio [39]: > 28.1; selectivity ratio [40]: > 28.1; selectivity ratio [41]: > 28.1; Activity [12]: inactive; inhibition [45]: Dose-Dependent Effect; IC50 [42]: 3.3 µM; IC50 [43]: 17.2 µM
